Experiment [1] relates to MCF-7. Put plainly: CellTiterGlo cell viability assay, MCF-7. Type of experiment: cell-based. The following applies: MCF-7, 72 h; for inhibition at 198 µM / EC50: Homo sapiens, MCF7, 72 h; for inhibition at 198 µM: read-out: Top Inhibit; for EC50: Table 4 classes, read-out: Ab EC50. As to the method: (§1) A subset of compounds of the invention were assayed for their cytotoxic activity in an array of different solid tumours and haematological malignancies using the following assay.
(§2) In vitro viability assay were performed to assess the effects of compounds on cell viability in selected cell lines over 72 h using the CellTiterGlo (CTG, Promega-G7573) assay. The tests were performed in duplicates with treatment of compounds at 9 points, 3.16 folds titration in 96 well plates over ˜72 h. The compound starting concentrations were 198 μM. Cell viability assay using CellTiterGlo in 96-well plate were performed. Compound treatment 72 h, standard growth conditions, duplicates. Compounds were dissolved to 40 mM with thawed […]. Compounds were serially diluted at 3.16 fold in thawed DMSO, and warmed to 37° C. before being dissolved in media (2 μL+200 μL). After compounds were dissolved in media, media containing compounds were warmed to 37° C. in incubator and then compounds in media were added to cell plates (50 μL+50 μL) in duplicates. The compounds' final concentrations were from 198 μM to 19.8 nM. All compound solubilities were checked and recorded again, then the plates were transferred to CO2 tissue culture incubator immediately and incubated for 3 days. DMSO final concentration is 0.5%. The parent nucleoside in each case was tested as a comparator, as was an exemplary ProTide. The drugs of the ProTide class that were tested were as follows:
(§3) The following cell lines were tested and are referred to in the Table 1 below:
(§4) In Tables 2, 3 and 4, ‘Ab EC50’ refers to the absolute EC50 and ‘Top inhibit’ refers to the percentage inhibition achieved at the highest concentration tested.
(In general: In ATP-based viability assays light output follows the ATP content of the culture.)

The subject of experiment [2] is HepG2. Nature of the experiment: CellTiterGlo cell viability assay, HepG2. The format is cell-based. The following applies: HepG2, 72 h; for EC50: read-out: Ab EC50; for inhibition at 198 µM: read-out: Top Inhibit. As to the method: as §1, §2, §3, §4
In experiment [3] the test system is HL-60. Put plainly: CellTiterGlo cell viability assay, HL-60. Type of experiment: cell-based. The note with it: HL-60, 72 h; for EC50: read-out: Ab EC50; for inhibition at 198 µM: read-out: Top Inh. As to the method: as §1, §2, §3, §4
The test system of experiment [4] is RL. Put plainly: CellTiterGlo cell viability assay, RL. The format is cell-based. The following applies: 72 h; for inhibition at 198 µM: read-out: Top Inh. As to the method:
as §1, §2, §3, §4

Experiment [5] relates to K562. Put plainly: CellTiterGlo cell viability assay, K562. Type of experiment: cell-based. The following applies: for inhibition at 198 µM: read-out: Top Inh; for EC50: read-out: Ab EC50. As to the method:
as §1, §2, §3, §4

The subject of experiment [6] is KG-1. Put plainly: CellTiterGlo cell viability assay, KG-1. Type of experiment: cell-based. The following applies: KG-1, 72 h; for EC50: read-out: Ab EC50; for inhibition at 198 µM: read-out: Top Inhibit. Here is the method: as §1, §2, §3, §4
Experiment [7] has as its system CCRF-CEM. Nature of the experiment: CellTiterGlo cell viability assay, CCRF-CEM. Type of experiment: cell-based. The note with it: 72 h; for EC50: read-out: Ab EC50; for inhibition at 198 µM: read-out: Top Inh. Here is the method: as §1, §2, §3, §4
Experiment [8] has as its system OVCAR 3. Nature of the experiment: CellTiterGlo cell viability assay, OVCAR 3. Type of experiment: cell-based. The note with it: for inhibition at 198 µM: OVCAR-3, 72 h, read-out: Top Inhibit; for EC50: read-out: Ab EC50. Here is the method:
as §1, §2, §3, §4

Experiment [9] concerns HT29. Nature of the experiment: CellTiterGlo cell viability assay, HT29. Type of experiment: cell-based. The note with it: HT29, 72 h; for EC50: read-out: Ab EC50; for inhibition at 198 µM: read-out: Top Inhibit. Here is the method: as §1, §2, §3, §4
Experiment [10] relates to MOLT-4. Nature of the experiment: CellTiterGlo cell viability assay, MOLT-4. The format is cell-based. The note with it: MOLT-4, 72 h; for inhibition at 198 µM: read-out: Top Inh; for EC50: read-out: Ab EC50. Here is the method: as §1, §2, §3, §4
Experiment [11] relates to RPMI-8226. Put plainly: CellTiterGlo cell viability assay, RPMI-8226. The note with it: RPMI-8226, 72 h; for EC50: read-out: Ab EC50; for inhibition at 198 µM: read-out: Top Inh. Type of experiment: cell-based, Human. As to the method: as §1, §2, §3, §4
Where [12] appears, read: percentage inhibition at the highest concentration tested.
Where [13] appears, read: Homo sapiens, percentage inhibition at the highest concentration tested.
The mark [14] stands for this setting: Homo sapiens, K562, 72 h, percentage inhibition at the highest concentration tested.
[15] abbreviates: Homo sapiens, K562, K 562, 72 h, Table 4 classes.
Where [16] appears, read: Homo sapiens, OVCAR 3, 72 h, Table 4 classes.
The mark [17] stands for this setting: Homo sapiens, HT-29, 72 h, Table 4 classes.
Where [18] appears, read: Homo sapiens, HT-29, 72 h, percentage inhibition at the highest concentration tested.

These results are taken from patent US11560400B2, “Salts of diphosphate phosphoramidate of nucleosides as anticancer compounds” (NuCana plc, priority 2017, dated 2023).

Structures can show the parent of a compound that is named as a salt. Where two headings read alike, the source gives them in different places.

What is called EC50 is the concentration giving half of the maximal effect.

For `C[C@H](NP(=O)(Oc1ccccc1)OP(=O)(O)OC[C@H]1O[C@@H](n2cnc3c(N)nc(Cl)nc32)[C@H](F)C1O)C(=O)OCC(C)(C)C` (stereo partly drawn) [Example 9, 2-Chloro-9-(2′-Deoxy-2′-fluoro-β-D-arabinofuranosyl)adenine-5′-O-[phenyl(neopentoxy-L-alaninyl)] Diphosphate Triethylammonium Salt], the inhibition at 198 µM in [1] (setting [12]) was found to be 45%; in experiment [2] (setting [13]) it was 53%; in [3] (setting [13]) it was 96%; in [4] (setting [13]) it was 53%; in experiment [5] (setting [14]), 40%; in [6] (setting [13]), 92%. For the same molecule, the inhibition at 198 µM in experiment [7] (setting [13]) was found to be 99%; in experiment [8] (setting [13]), 43%; in experiment [9] (setting [18]) it was 70%; in experiment [10] (setting [13]) it was 92%; in experiment [11] (setting [13]), 81%. In addition, the EC50 in experiment [2] (Homo sapiens, Table 4 classes) was 200 to 1000 nM; in [3] (Homo sapiens, Table 4 classes) it was less than 200 nM; in experiment [4] (Homo sapiens, Table 4 classes, read-out: Ab EC50), 200 to 1000 nM; in experiment [5] (setting [15]), greater than 10000 nM; in experiment [6] (Homo sapiens, Table 4 classes) it was less than 200 nM; in experiment [7] (Homo sapiens, Table 4 classes) it was less than 200 nM. For the same molecule, the half-maximal effective concentration (EC50) was greater than 10000 nM in experiment [8] (setting [16]); 200 to 1000 nM in experiment [9] (setting [17]); less than 200 nM in [10] (Homo sapiens, Table 4 classes); greater than 10000 nM in [11] (Homo sapiens, Table 4 classes).
In the case of `CC(C)(NP(=O)(Oc1ccccc1)OP(=O)(O)OC[C@H]1O[C@@H](n2cnc3c(N)nc(Cl)nc32)[C@H](F)C1O)C(=O)OCc1ccccc1` (stereo partly drawn) [Example 10, 2-Chloro-9-(2′-Deoxy-2′-fluoro-β-D-arabinofuranosyl)adenine-5′-O-[phenyl(benzoxy-dimethylglycinyl)] Diphosphate Triethylammonium Salt], the EC50 is greater than 10000 nM in experiment [1]; 1000 to 5000 nM in experiment [2] (Homo sapiens, Table 4 classes); less than 200 nM in experiment [3] (Homo sapiens, Table 4 classes); greater than 10000 nM in [5] (setting [15]); less than 200 nM in experiment [6] (Homo sapiens, Table 4 classes); less than 200 nM in experiment [7] (Homo sapiens, Table 4 classes). Besides, the EC50 in experiment [8] (setting [16]) was greater than 10000 nM; in experiment [9] (setting [17]), 200 to 1000 nM; in experiment [10] (Homo sapiens, Table 4 classes) it was less than 200 nM; in [11] (Homo sapiens, Table 4 classes), greater than 10000 nM. Moreover, the inhibition at 198 µM in experiment [1] (setting [12]) was determined as 51%; in experiment [2] (setting [13]), 55%; in experiment [3] (setting [13]), 96%; in experiment [4] (setting [13]), 48%; in experiment [5] (setting [14]), 37%; in experiment [6] (setting [13]), 92%. Also, the inhibition at 198 µM in experiment [7] (setting [13]) came to 99%; in experiment [8] (setting [13]), 42%; in experiment [9] (setting [18]) it was 70%; in experiment [10] (setting [13]), 93%; in [11] (setting [13]), 80%.
For `CC(C)(NP(=O)(Oc1cccc2ccccc12)OP(=O)(O)OC[C@H]1O[C@@H](n2cnc3c(N)nc(Cl)nc32)[C@H](F)C1O)C(=O)OCc1ccccc1` (stereo partly drawn) [Example 11, 2-Chloro-9-(2′-Deoxy-2′-fluoro-β-D-arabinofuranosyl)adenine-5′-O-[1-naphthyl(benzoxy-dimethylglycinyl)] Diphosphate Triethylammonium Salt], the EC50 in [1] was greater than 10000 nM; in experiment [2] (Homo sapiens, Table 4 classes) it was 1000 to 5000 nM; in experiment [3] (Homo sapiens, Table 4 classes) it was less than 200 nM; in experiment [5] (setting [15]) it was greater than 10000 nM; in experiment [6] (Homo sapiens, Table 4 classes), less than 200 nM; in [7] (Homo sapiens, Table 4 classes) it was less than 200 nM. Also, the concentration giving a half-maximal response (EC50) in experiment [8] (setting [16]) was greater than 10000 nM; in experiment [9] (setting [17]) it was 200 to 1000 nM; in [10] (Homo sapiens, Table 4 classes), less than 200 nM; in [11] (Homo sapiens, Table 4 classes) it was greater than 10000 nM. Further, the inhibition at 198 µM was determined as 57% in experiment [1] (setting [12]); 58% in [2] (setting [13]); 96% in [3] (setting [13]); 47% in experiment [4] (setting [13]); 50% in experiment [5] (setting [14]); 92% in experiment [6] (setting [13]). For the same molecule, the inhibition at 198 µM stood at 99% in [7] (setting [13]); 70% in experiment [8] (setting [13]); 69% in experiment [9] (setting [18]); 91% in experiment [10] (setting [13]); 81% in experiment [11] (setting [13]).
In the case of `CC(C)[C@H](NP(=O)(Oc1ccccc1)OP(=O)(O)OC[C@H]1O[C@@H](n2cnc3c(N)nc(Cl)nc32)[C@@H](F)[C@@H]1O)C(=O)OC1CCCCC1.CCN(CC)CC` (stereo partly drawn) [Example 12, 2-Chloro-9-(2′-Deoxy-2′-fluoro-β-D-arabinofuranosyl)adenine-5′-O-[phenyl(cyclohexoxy-L-valinyl)] Diphosphate Triethylammonium Salt], the “Top Inhibit” value in experiment [1] (setting [12]) is 44%; in experiment [2] (setting [12]), 54%; in [6] (setting [12]) it was 91%; in experiment [8] (OVCAR 3, 72 h, percentage inhibition at the highest concentration tested) it was 41%; in experiment [9] (setting [12]), 71%. Also, the EC50 in [2] (absolute EC50, numeric values) is 290 nM; in experiment [3] (absolute EC50, numeric values), 70 nM; in [5] (K562, 72 h, absolute EC50, numeric values) it was greater than 198000 nM; in experiment [6] (absolute EC50, numeric values) it was 140 nM; in experiment [7] (absolute EC50, numeric values), less than 20 nM; in [8] (OVCAR 3, 72 h, absolute EC50, numeric values), greater than 198000 nM. The EC50 in experiment [9] (absolute EC50, numeric values) is 370 nM; in experiment [10] (absolute EC50, numeric values), 40 nM; in [11] (absolute EC50, numeric values), 39600 nM. For the same molecule, the “Top Inh” value in experiment [3] (setting [12]) is recorded as 96%; in [4] (setting [12]), 47%; in experiment [5] (K562, 72 h, percentage inhibition at the highest concentration tested) it was 40%; in [7] (setting [12]) it was 99%; in experiment [10] (setting [12]) it was 91%; in experiment [11] (setting [12]), 79%.
On to `C[C@H](NP(=O)(Oc1cccc2ccccc12)OP(=O)(O)OC[C@H]1O[C@@H](n2cnc3c(N)nc(Cl)nc32)[C@H](F)C1O)C(=O)OCC(C)(C)C` (stereo partly drawn) [Example 13, 2-Chloro-9-(2′-Deoxy-2′-fluoro-β-D-arabinofuranosyl)adenine-5′-O-[1-naphthyl(neopentoxy-L-alaninyl)] Diphosphate Triethylammonium Salt], for which the inhibition at 198 µM in experiment [1] (setting [12]) came to 49%; in experiment [2] (setting [13]) it was 49%; in experiment [3] (setting [13]) it was 96%; in [4] (setting [13]), 48%; in experiment [5] (setting [14]), 44%; in [6] (setting [13]), 93%. Moreover, the inhibition at 198 µM is 99% in experiment [7] (setting [13]); 80% in experiment [8] (setting [13]); 68% in experiment [9] (setting [18]); 89% in experiment [10] (setting [13]); 88% in [11] (setting [13]). The EC50 is less than 200 nM in experiment [3] (Homo sapiens, Table 4 classes); greater than 10000 nM in experiment [5] (setting [15]); less than 200 nM in [6] (Homo sapiens, Table 4 classes); less than 200 nM in experiment [7] (Homo sapiens, Table 4 classes); greater than 10000 nM in experiment [8] (setting [16]); 200 to 1000 nM in experiment [9] (setting [17]). The EC50 in experiment [10] (Homo sapiens, Table 4 classes) was less than 200 nM; in experiment [11] (Homo sapiens, Table 4 classes), greater than 10000 nM.
